# Measurements published in patent publication US20070037862A1, “Thiazolidinones, their production and use as pharmaceutical agents” (priority 2003, published 2007).
# Target: T1, Recombinant human Plk-1 (6×His) (Homo sapiens, UniProt P53350)
# T1 construct: 6xHis; made in house; host or cells: baculovirus-infected Hi5 insect cells
# Assay: PLK enzyme assay
# Format: biochemical
# Conditions: Table 1; read-out: PLK IC50
# Description: Recombinant human Plk-1 (6×His) was purified from baculovirus-infected insect cells (Hi5).
# 10 ng of (produced in a recombinant manner and purified) PLK enzyme is incubated for 90 minutes at room temperature with biotinylated casein and 33P-γ-ATP as a substrate in a volume of 15 μl in 384-well Greiner small-volume microtiter plates (final concentrations in the buffer: 660 ng/ml of PLK; 0.7 μmol of casein, 0.5 μmol of ATP incl. 400 nCi/ml of 33P-γ-ATP; 10 mmol of MgCl2, 1 mmol of MnCl2; 0.01% NP40; 1 mmol of DTT, protease inhibitors; 0.1 mmol of Na2VO3 in 50 mmol of HEPES, pH 7.5). To complete the reaction, 5 μl of stop solution (500 μmol of ATP; 500 mmol of EDTA; 1% Triton X100; 100 mg/ml of streptavidin-coated SPA beads in PBS) is added. After the microtiter plate is sealed by film, the beads are sedimented by centrifuging (10 minutes, 1500 rpm). The incorporation of 33P-γ-ATP in casein is intended as a measurement of enzyme activity by β-counting.
# Test substances are used in various concentrations (0 μmol, as well as in the range of 0.01-30 ∥mol). The final concentration of the solvent dimethyl sulfoxide is 1.5% in all batches.
# T1 sequence (P53350 whole entry): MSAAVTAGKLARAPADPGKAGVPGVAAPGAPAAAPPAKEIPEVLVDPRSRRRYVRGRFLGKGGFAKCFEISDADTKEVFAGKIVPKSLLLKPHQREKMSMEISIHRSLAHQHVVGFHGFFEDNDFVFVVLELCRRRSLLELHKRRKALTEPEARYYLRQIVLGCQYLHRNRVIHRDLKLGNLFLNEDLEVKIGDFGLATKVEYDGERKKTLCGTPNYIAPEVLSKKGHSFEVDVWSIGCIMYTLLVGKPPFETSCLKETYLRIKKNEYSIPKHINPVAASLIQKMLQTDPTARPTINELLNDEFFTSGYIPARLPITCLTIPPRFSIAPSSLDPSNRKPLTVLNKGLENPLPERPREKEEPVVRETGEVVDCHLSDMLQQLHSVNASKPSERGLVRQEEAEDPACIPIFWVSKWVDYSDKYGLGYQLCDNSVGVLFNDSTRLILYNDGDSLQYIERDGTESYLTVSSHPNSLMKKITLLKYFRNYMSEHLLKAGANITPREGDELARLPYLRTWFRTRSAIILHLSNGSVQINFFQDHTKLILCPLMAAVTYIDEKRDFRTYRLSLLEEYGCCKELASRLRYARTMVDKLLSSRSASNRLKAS
row,SMILES,IC50
1,CCOC(=O)C(C#N)=c1sc(=CNc2ccccc2F)c(=O)n1CC (mixture of isomers) [Example 36],160 nM
2,CCOC(=O)C(C#N)=c1sc(=CNc2ccc(OC)c(NC(=S)N3CCOCC3)c2)c(=O)n1CC (mixture of isomers) [Example 56],810 nM
3,CCOC(=O)C(C#N)=c1sc(=CNc2ccc(NC(=O)COC)cc2)c(=O)n1CC [Example 19],500 nM
4,CCn1c(=O)c(=CNc2ccccc2)s/c1=C(/C#N)C(=O)NCc1ccco1 [Example 223],3100 nM
5,CCCCN(C)C(=O)/C(C#N)=c1\sc(=CNc2ccccc2)c(=O)n1CC [Example 234],950 nM

# Same assay, conditions: Table 2, Amides; read-out: Inhibition of Plk-1 IC50
row,SMILES,IC50
1,C#CCNC(=O)/C(C#N)=c1\sc(=CNc2ccc(OCCN(C)C)cc2)c(=O)n1CC [Example 307],71 nM
2,CCn1c(=O)c(=CNc2ccc(OCCN(C)C)cc2)s/c1=C(/C#N)C(=O)NCC(F)F [Example 310],74 nM

# Same assay, conditions: Table 3, Esters; read-out: Inhibition of Plk-1 IC50
row,SMILES,IC50
1,C=CCOC(=O)C(C#N)=c1sc(=CNc2ccc(NC(=O)NCCN3CCCC3)cc2)c(=O)n1CC (mixture of isomers) [Example 47],23 nM

# Tested on: human MaTu breast tumor cells
# Assay: Proliferation assay (crystal violet)
# Format: cell-based
# Conditions: 96 h, Table 2, Amides, 4 days, read-out: Inhibition of Tumor Cell Proliferation (MaTu) IC50
# Description: Cultivated human MaTu breast tumor cells were flattened out at a density of 5000 cells/measuring point in a 96-well multititer plate in 200 μl of the corresponding growth medium. After 24 hours, the cells of one plate (zero-point plate) were colored with crystal violet (see below), while the medium of the other plates was replaced by fresh culture medium (200 μl), to which the test substances were added in various concentrations (0 μm, as well as in the range of 0.01-30 μm; the final concentration of the solvent dimethyl sulfoxide was 0.5%). The cells were incubated for 4 days in the presence of test substances. The cell proliferation was determined by coloring the cells with crystal violet: the cells were fixed by adding 20 μl/measuring point of an 11% glutaric aldehyde solution for 15 minutes at room temperature. After three washing cycles of the fixed cells with water, the plates were dried at room temperature. The cells were colored by adding 100 μl/measuring point of a 0.1% crystal violet solution (pH was set at 3 by adding acetic acid). After three washing cycles of the colored cells with water, the plates were dried at room temperature. The dye was dissolved by adding 100 μl/measuring point of a 10% acetic acid solution. The extinction was determined by photometry at a wavelength of 595 nm. The change of cell growth, in percent, was calculated by standardization of the measured values to the extinction values of the zero-point plate (=0%) and the extinction of the untreated (0 μm) cells (=100%).
row,SMILES,IC50
1,CCNC(=O)/C(C#N)=c1\sc(=CNc2cccc(C(=O)NCCCN3CCCC3)c2)c(=O)n1CC [Example 169],3.55 µM
2,CCn1c(=O)c(=CNc2cccc(NC(=O)C(C)(C)C)c2)s/c1=C(/C#N)C(=O)NC1(CO)CCCC1 [Example 192],9.7 µM
3,CCn1c(=O)c(=CNc2ccccc2)s/c1=C(/C#N)C(=O)N1CCCC1 [Example 210],4.5 µM
4,CCN(CC)CCNC(=O)c1c[nH]c2ccc(NC=c3s/c(=C(/C#N)C(=O)NCC(F)(F)F)n(CC)c3=O)cc12 [Example 330],1.2 µM
5,CCn1c(=O)c(=CNc2ccc(CCN3CCCC3)cc2)s/c1=C(/C#N)C(=O)NCC(F)(F)F [Example 527],2.8 µM

# Same assay, conditions: 96 h, Table 3, Esters, 4 days, read-out: Inhibition of Tumor Cell Proliferation (MaTu) IC50
row,SMILES,IC50
1,C=CCOC(=O)C(C#N)=c1sc(=CNc2ccc(NC(=O)NCCN3CCCC3)cc2)c(=O)n1CC (mixture of isomers) [Example 47],1.1 µM
2,CCOC(=O)C(C#N)=c1sc(=CNc2ccc(C(C)=O)cc2)c(=O)n1CC (mixture of isomers) [Example 132],3.1 µM
3,C=CCOC(=O)C(C#N)=c1sc(=CNc2ccc(C(C)=O)cc2)c(=O)n1CC (mixture of isomers) [Example 133],1.4 µM
4,CCOC(=O)C(C#N)=c1sc(=CNc2ccc(NC(=O)NCCN3CCCC3)cc2)c(=O)n1CC [Example 74],3.3 µM
